According to US8673908B2, “Kynurenine production inhibitor” (Kyowa Hakko Kirin Co., Ltd., priority 2008, dated 2014):

tested on: kynurenine production in IFN-γ-treated KATO-III cells; assay: Inhibitory activity on kynurenine production (Test Example 1); assay type: cell-based; conditions: Homo sapiens, IFN-γ treatment, culture for 96 hours, read-out: IC50 value, inhibition of kynurenine production
Procedure, shortened: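 Read-out is absorbance at 480 nm of medium treated with trichloroacetic acid, then p-dimethylaminobenzaldehyde, to quantify kynurenine. DMSO-only wells with and without IFN-γ serve as references. Cells were KATO-III, 2,000 per well, 96 h at 37 °C/5% CO2 with compound (DMSO ≤0.1%) and IFN-γ at 31.25 ng/mL in the added suspension.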

Row | SMILES | IC50
1 | CCNS(=O)(=O)Nc1nc2ccccc2nc1OC(c1cccnc1)C(F)(F)F (stereo not shown) [Compound 195, N-ethyl-N′-{3-[2,2,2-trifluoro-1-(pyridin-3-yl)ethoxy]-quinoxalin-2-yl}sulfuric diamide] | < 1000 nM
2 | CCCS(=O)(=O)Nc1nc2ccccc2nc1OC(c1cnc(Cl)s1)C(F)(F)F (stereo not shown) [Compound 196, N-{3-[1-(2-chlorothiazol-5-yl)-2,2,2-trifluoroethoxy]-quinoxalin-2-yl}propane-1-sulfonamide] | < 1000 nM
3 | CCCS(=O)(=O)Nc1nc2ccccc2nc1OC(c1ccc(CN(C)C)cc1)C(F)(F)F (stereo not shown) [Compound 197, N-{3-[1-(4-((dimethylamino)methyl)phenyl)-2,2,2-trifluoroethoxy]quinoxalin-2-yl}propane-1-sulfonamide] | < 1000 nM
4 | Cc1noc(C)c1S(=O)(=O)Nc1nc2ccccc2nc1OC(c1cnc(Cl)s1)C(F)(F)F (stereo not shown) [Compound 198, N-{3-[1-(2-chlorothiazol-5-yl)-2,2,2-trifluoroethoxy]-quinoxalin-2-yl}-3,5-dimethylisoxazole-4-sulfonamide] | < 1000 nM
5 | Cc1nn(C)c(Cl)c1S(=O)(=O)Nc1nc2ccccc2nc1OC(c1ccc(C#N)cc1)C(F)(F)F (stereo not shown) [Compound 200, 5-chloro-N-{3-[1-(4-cyanophenyl)-2,2,2-trifluoroethoxy]-quinoxalin-2-yl}-1,3-dimethyl-1H-pyrazole-4-sulfonamide] | < 1000 nM
6 | Cc1noc(C)c1S(=O)(=O)Nc1nc2ccccc2nc1OC(c1ccc(C#N)cc1)C(F)(F)F (stereo not shown) [Compound 201, N-{3-[1-(4-cyanophenyl)-2,2,2-trifluoroethoxy]quinoxalin-2-yl}-3,5-dimethylisoxazole-4-sulfonamide] | < 1000 nM
7 | CCCS(=O)(=O)Nc1nc2ccccc2nc1OC(c1ccc(C#N)cc1)C(F)(F)F (stereo not shown) [Compound 202, N-{3-[1-(4-cyanophenyl)-2,2,2-trifluoroethoxy]quinoxalin-2-yl}propane-1-sulfonamide] | < 1000 nM
8 | Cc1nn(C)c(Cl)c1S(=O)(=O)Nc1nc2ccccc2nc1OC(c1ccc(CN(C)C)cc1)C(F)(F)F (stereo not shown) [Compound 203, 5-chloro-N-{3-[1-(4-((dimethylamino)methyl)phenyl)-2,2,2-trifluoroethoxy]quinoxalin-2-yl}-1,3-dimethyl-1H-pyrazole-4-sulfonamide] | < 1000 nM
9 | Cc1noc(C)c1S(=O)(=O)Nc1nc2ccccc2nc1OC(c1ccc(CN(C)C)cc1)C(F)(F)F (stereo not shown) [Compound 204, N-{3-[1-(4-((dimethylamino)methyl)phenyl)-2,2,2-trifluoroethoxy]quinoxalin-2-yl}-3,5-dimethylisoxazole-4-sulfonamide] | < 1000 nM
10 | COCCCNS(=O)(=O)Nc1nc2ccccc2nc1OC(c1cccnc1)C(F)(F)F (stereo not shown) [Compound 206, N-{3-[2,2,2-trifluoro-1-(pyridin-3-yl)ethoxy]quinoxalin-2-yl}-N′-(3-methoxypropyl)-sulfuric diamide] | < 1000 nM
11 | CCOCCNS(=O)(=O)Nc1nc2ccccc2nc1OC(c1cccnc1)C(F)(F)F (stereo not shown) [Compound 207, N-{3-[2,2,2-trifluoro-1-(pyridin-3-yl)ethoxy]quinoxalin-2-yl}-N′-(2-ethoxyethyl)-sulfuric diamide] | < 1000 nM
12 | CC(C)(C)OC(=O)NCCc1ccc(S(=O)(=O)Nc2nc3ccccc3nc2OC(c2cccnc2)C(F)(F)F)cc1 (stereo not shown) [Compound 208, tert-butyl 4-(N-{3-[2,2,2-trifluoro-1-(pyridin-3-yl)ethoxy]quinoxalin-2-yl}sulfamoyl)phenethylcarbamate] | < 1000 nM
13 | CCCS(=O)(=O)Nc1nc2ccccc2nc1OC(c1cccnc1)C(C)C (stereo not shown) [Compound 210, N-{3-[2-methyl-1-(pyridin-3-yl)propoxy]quinoxalin-2-yl}-propane-1-sulfonamide] | < 1000 nM
14 | CCCNS(=O)(=O)Nc1nc2ccccc2nc1OC(c1cccnc1)C(C)C (stereo not shown) [Compound 213, N-{3-[2-methyl-1-(pyridin-3-yl)propoxy]quinoxalin-2-yl}-N′-propyl-sulfuric diamide] | < 1000 nM
15 | CCCNS(=O)(=O)Nc1nc2ccccc2nc1OC(c1ccc[n+]([O-])c1)C(C)C (stereo not shown) [Compound 214, 3-{2-methyl-1-[3-(N-propylsulfamoylamino)quinoxalin-2-yloxy]propyl}pyridine 1-oxide] | < 1000 nM
16 | CCCS(=O)(=O)Nc1nc2ccccc2nc1OC(C1CCOCC1)C(F)(F)F (stereo not shown) [Compound 215, N-{3-[2,2,2-trifluoro-1-(tetrahydro-2H-pyran-4-yl)ethoxy]-quinoxalin-2-yl}propane-1-sulfonamide] | < 1000 nM
17 | CCCNS(=O)(=O)Nc1nc2ccccc2nc1OC(C1CCOCC1)C(F)(F)F (stereo not shown) [Compound 216, N-propyl-N′-{3-[2,2,2-trifluoro-1-(tetrahydro-2H-pyran-4-yl)ethoxy]quinoxalin-2-yl}sulfuric diamide] | < 1000 nM
18 | O=S(=O)(Nc1nc2ccccc2nc1SCc1ccccc1)c1ccccc1Cl [Compound 221, N-[3-(benzylthio)quinoxalin-2-yl]-2-chlorobenzenesulfonamide] | 1000 to 10000 nM
19 | CC(Sc1nc2ccccc2nc1NS(=O)(=O)c1ccccc1Cl)c1ccccc1 (stereo not shown) [Compound 224, 2-chloro-N-[3-(1-phenylethylthio)quinoxalin-2-yl]benzenesulfonamide] | < 1000 nM

Row | SMILES | IC50
20 | CC(C)C(Oc1nc2ccccc2nc1NS(=O)(=O)c1cccc(Cl)c1Cl)C(C)C [Compound 226, 2,3-dichloro-N-[3-(2,4-dimethylpentan-3-yloxy)quinoxalin-2-yl]benzenesulfonamide] | < 1000 nM
21 | CC(CN1CCOCC1)Oc1nc2ccccc2nc1NS(=O)(=O)c1ccccc1Cl (stereo not shown) [Compound 230, 2-chloro-N-[3-(1-morpholinopropan-2-yloxy)quinoxalin-2-yl]-benzenesulfonamide] | < 1000 nM
22 | CC(Oc1nc2ccccc2nc1NS(=O)(=O)c1ccccc1Cl)C(C)(C)C (stereo not shown) [Compound 231, 2-chloro-N-[3-(3,3-dimethylbutan-2-yloxy)quinoxalin-2-yl]-benzenesulfonamide] | 1000 to 10000 nM
23 | CCOCC(C)Oc1nc2ccccc2nc1NS(=O)(=O)c1ccccc1Cl (stereo not shown) [Compound 232, 2-chloro-N-[3-(1-ethoxypropan-2-yloxy)quinoxalin-2-yl]-benzenesulfonamide] | 1000 to 10000 nM
24 | CCC(=O)C(CC)Oc1nc2ccccc2nc1NS(=O)(=O)c1ccccc1Cl (stereo not shown) [Compound 237, 2-chloro-N-[3-(4-oxohexan-3-yloxy)quinoxalin-2-yl]benzenesulfonamide] | < 1000 nM
25 | O=S(=O)(Nc1nc2ccccc2nc1OC(c1cccnc1)c1cccnc1)c1ccccc1Cl [Compound 242, 2-chloro-N-[3-(dipyridin-3-ylmethoxy)quinoxalin-2-yl]-benzenesulfonamide] | < 1000 nM
26 | O=S(=O)(Nc1nc2ccccc2nc1OC(c1cccnc1)c1cncs1)c1ccccc1Cl (stereo not shown) [Compound 243, 2-chloro-N-{3-[pyridin-3-yl(thiazol-5-yl)methoxy]-quinoxalin-2-yl}benzenesulfonamide] | < 1000 nM
27 | CCC1(COc2nc3ccccc3nc2NS(=O)(=O)c2ccccc2Cl)CCOCC1 [Compound 245, 2-chloro-N-{3-[(4-ethyltetrahydro-2H-pyran-4-yl)methoxy]-quinoxalin-2-yl}benzenesulfonamide] | < 1000 nM
28 | CC1(COc2nc3ccccc3nc2NS(=O)(=O)c2ccccc2Cl)CCOCC1 [Compound 246, 2-chloro-N-{3-[(4-methyltetrahydro-2H-pyran-4-yl)methoxy]-quinoxalin-2-yl}benzenesulfonamide] | < 1000 nM
29 | COC1(COc2nc3ccccc3nc2NS(=O)(=O)c2ccccc2Cl)CCOCC1 [Compound 247, 2-chloro-N-{3-[(4-methoxytetrahydro-2H-pyran-4-yl)methoxy]-quinoxalin-2-yl}benzenesulfonamide] | 1000 to 10000 nM
30 | N#CC1(COc2nc3ccccc3nc2NS(=O)(=O)c2ccccc2Cl)CCOCC1 [Compound 250, 2-chloro-N-{3-[(4-cyanotetrahydro-2H-pyran-4-yl)methoxy]-quinoxalin-2-yl}benzenesulfonamide] | 1000 to 10000 nM
31 | CC1(COc2nc3ccccc3nc2NS(=O)(=O)c2ccccc2Cl)COCOC1 [Compound 251, 2-chloro-N-{3-[(5-methyl-1,3-dioxan-5-yl)methoxy]-quinoxalin-2-yl}benzenesulfonamide] | 1000 to 10000 nM
32 | Cc1cc2nc(NS(=O)(=O)c3ccccc3Cl)c(OC(c3cccnc3)C(F)(F)F)nc2cc1C (stereo not shown) [Compound 260, 2-chloro-N-{6,7-dimethyl-3-[2,2,2-trifluoro-1-(pyridin-3-yl)ethoxy]quinoxalin-2-yl}benzenesulfonamide] | 1000 to 10000 nM
33 | Cc1ccc2nc(NS(=O)(=O)c3ccccc3Cl)c(OC(c3cccnc3)C(F)(F)F)nc2c1 (stereo not shown) [Compound 262, 2-chloro-N-{6-methyl-3-[2,2,2-trifluoro-1-(pyridin-3-yl)-ethoxy]quinoxalin-2-yl}benzenesulfonamide] | < 1000 nM
34 | O=S(=O)(Nc1nc2cc3ccccc3cc2nc1OC(c1cccnc1)C(F)(F)F)c1ccccc1Cl (stereo not shown) [Compound 263, 2-chloro-N-{3-[2,2,2-trifluoro-1-(pyridin-3-yl)ethoxy]-benzo[g]quinoxalin-2-yl}benzenesulfonamide] | < 1000 nM
35 | O=S(=O)(Nc1nc2cc(Cl)c(Cl)cc2nc1OC(c1cccnc1)C(F)(F)F)c1ccccc1Cl (stereo not shown) [Compound 264, 2-chloro-N-{6,7-dichloro-3-[2,2,2-trifluoro-1-(pyridin-3-yl)ethoxy]quinoxalin-2-yl}benzenesulfonamide] | < 1000 nM
36 | Cc1cccc2nc(OC(c3cccnc3)C(F)(F)F)c(NS(=O)(=O)c3ccccc3Cl)nc12 (stereo not shown) [Compound 265, 2-chloro-N-{8-methyl-3-[2,2,2-trifluoro-1-(pyridin-3-yl)-ethoxy]quinoxalin-2-yl}benzenesulfonamide] | < 1000 nM
37 | Cc1cccc2nc(NS(=O)(=O)c3ccccc3Cl)c(OC(c3cccnc3)C(F)(F)F)nc12 (stereo not shown) [Compound 266, 2-chloro-N-{5-methyl-3-[2,2,2-trifluoro-1-(pyridin-3-yl)-ethoxy]quinoxalin-2-yl}benzenesulfonamide] | < 1000 nM
